In PubChem BioAssay (NCI):
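Compound exposure: 48 hours, 5 concentrations, 96-well plates. GI50 = concentration required for 50% inhibition of growth. TGI marks complete inhibition of growth.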

Assays:
Experiment in all cases: DTP human tumour cell line panel, 48 h
SN12C renal = test system: SN12C renal
BT-549 breast = test system: BT-549 breast
OVCAR-3 ovarian = test system: OVCAR-3 ovarian
SF-539 CNS = test system: SF-539 CNS
SK-MEL-2 melanoma = test system: SK-MEL-2 melanoma
786-0 renal = test system: 786-0 renal
CCRF-CEM leukemia = test system: CCRF-CEM leukemia
HS 578T breast = test system: HS 578T breast
DU-145 prostate = test system: DU-145 prostate
IGROV1 ovarian = test system: IGROV1 ovarian
UACC-257 melanoma = test system: UACC-257 melanoma
MOLT-4 leukemia = test system: MOLT-4 leukemia
SK-OV-3 ovarian = test system: SK-OV-3 ovarian
HL-60(TB) leukemia = test system: HL-60(TB) leukemia
T-47D breast = test system: T-47D breast
NCI-H522 lung = test system: NCI-H522 lung
SK-MEL-5 melanoma = test system: SK-MEL-5 melanoma
EKVX NSCLC = test system: EKVX NSCLC
MCF7 breast = test system: MCF7 breast
HOP-62 NSCLC = test system: HOP-62 NSCLC
UACC-62 melanoma = test system: UACC-62 melanoma
SW-620 colon = test system: SW-620 colon
SR leukemia = test system: SR leukemia
HOP-92 NSCLC = test system: HOP-92 NSCLC
RXF 393 renal = test system: RXF 393 renal
COLO 205 colon = test system: COLO 205 colon
KM12 colon = test system: KM12 colon
LOX IMVI melanoma = test system: LOX IMVI melanoma
SNB-75 CNS = test system: SNB-75 CNS
A549 NSCLC = test system: A549 NSCLC
A498 renal = test system: A498 renal
SK-MEL-28 melanoma = test system: SK-MEL-28 melanoma
SNB-19 CNS = test system: SNB-19 CNS
ACHN renal = test system: ACHN renal
M14 melanoma = test system: M14 melanoma
NCI-H460 lung = test system: NCI-H460 lung
CAKI-1 renal = test system: CAKI-1 renal
K-562 leukemia = test system: K-562 leukemia
HCT-15 colon = test system: HCT-15 colon
RPMI-8226 leukemia = test system: RPMI-8226 leukemia
SF-268 CNS = test system: SF-268 CNS
SF-295 CNS = test system: SF-295 CNS
U251 CNS = test system: U251 CNS
UO-31 renal = test system: UO-31 renal
MDA-MB-435 = test system: MDA-MB-435
OVCAR-8 ovarian = test system: OVCAR-8 ovarian
HCT-116 colon = test system: HCT-116 colon
TK-10 renal = test system: TK-10 renal
MDA-MB-231 breast = test system: MDA-MB-231 breast
PC-3 prostate = test system: PC-3 prostate

**Q.** With CC1=C(C(=O)Nc2ccc(F)c(Cl)c2)C(c2cccc(Cl)c2)NC(=S)N1 (stereo not given) as the compound, how does the GI50 (SN12C renal) read?
**A.** 0.00746 µM

**Q.** And the TGI (SN12C renal)?
**A.** 2.51 µM

**Q.** And the GI50 (BT-549 breast)?
**A.** 10.4 µM

**Q.** And the TGI (BT-549 breast)?
**A.** 28.1 µM

**Q.** And the GI50 (OVCAR-3 ovarian)?
**A.** 13.9 µM

**Q.** What about the TGI (OVCAR-3 ovarian) of the same compound?
**A.** 33.6 µM

**Q.** What about the GI50 (SF-539 CNS) of the same compound?
**A.** > 50 µM

**Q.** And the TGI (SF-539 CNS)?
**A.** > 50 µM

**Q.** What about the GI50 (SK-MEL-2 melanoma) of the same compound?
**A.** 8.4 µM

**Q.** What about the TGI (SK-MEL-2 melanoma) of the same compound?
**A.** 20.5 µM

**Q.** And the GI50 (786-0 renal)?
**A.** 1.85 µM

**Q.** What about the TGI (786-0 renal) of the same compound?
**A.** 8.4 µM

**Q.** What about the GI50 (CCRF-CEM leukemia) of the same compound?
**A.** 36.7 µM

**Q.** What about the TGI (CCRF-CEM leukemia) of the same compound?
**A.** > 50 µM

**Q.** And the GI50 (HS 578T breast)?
**A.** 26.4 µM

**Q.** And the TGI (HS 578T breast)?
**A.** > 50 µM

**Q.** What about the GI50 (DU-145 prostate) of the same compound?
**A.** 17.3 µM

**Q.** What about the TGI (DU-145 prostate) of the same compound?
**A.** > 50 µM

**Q.** And the GI50 (IGROV1 ovarian)?
**A.** 10.3 µM

**Q.** What about the TGI (IGROV1 ovarian) of the same compound?
**A.** 39.2 µM

**Q.** And the GI50 (UACC-257 melanoma)?
**A.** 10.1 µM

**Q.** And the TGI (UACC-257 melanoma)?
**A.** 23.5 µM

**Q.** What about the GI50 (MOLT-4 leukemia) of the same compound?
**A.** 45.1 µM

**Q.** And the TGI (MOLT-4 leukemia)?
**A.** > 50 µM

**Q.** What about the GI50 (SK-OV-3 ovarian) of the same compound?
**A.** 5.26 µM

**Q.** And the TGI (SK-OV-3 ovarian)?
**A.** 26.6 µM

**Q.** What about the GI50 (HL-60(TB) leukemia) of the same compound?
**A.** 16.3 µM

**Q.** And the TGI (HL-60(TB) leukemia)?
**A.** > 50 µM

**Q.** And the GI50 (T-47D breast)?
**A.** 42.5 µM

**Q.** What about the TGI (T-47D breast) of the same compound?
**A.** > 50 µM

**Q.** And the GI50 (NCI-H522 lung)?
**A.** 2.13 µM

**Q.** What about the TGI (NCI-H522 lung) of the same compound?
**A.** 17.3 µM

**Q.** What about the GI50 (SK-MEL-5 melanoma) of the same compound?
**A.** 10 µM

**Q.** What about the TGI (SK-MEL-5 melanoma) of the same compound?
**A.** 20.2 µM

**Q.** What about the GI50 (EKVX NSCLC) of the same compound?
**A.** 14.6 µM

**Q.** And the TGI (EKVX NSCLC)?
**A.** 38.6 µM

**Q.** What about the GI50 (MCF7 breast) of the same compound?
**A.** 47.6 µM

**Q.** And the TGI (MCF7 breast)?
**A.** > 50 µM

**Q.** And the GI50 (HOP-62 NSCLC)?
**A.** 7.83 µM

**Q.** What about the TGI (HOP-62 NSCLC) of the same compound?
**A.** 18.9 µM

**Q.** And the GI50 (UACC-62 melanoma)?
**A.** 3.93 µM

**Q.** And the TGI (UACC-62 melanoma)?
**A.** 12.5 µM

**Q.** And the GI50 (SW-620 colon)?
**A.** > 50 µM

**Q.** And the TGI (SW-620 colon)?
**A.** > 50 µM

**Q.** And the GI50 (SR leukemia)?
**A.** 15.4 µM

**Q.** What about the TGI (SR leukemia) of the same compound?
**A.** 47.8 µM

**Q.** What about the GI50 (HOP-92 NSCLC) of the same compound?
**A.** 32.1 µM

**Q.** What about the TGI (HOP-92 NSCLC) of the same compound?
**A.** > 50 µM

**Q.** What about the GI50 (RXF 393 renal) of the same compound?
**A.** 1.1 µM

**Q.** And the TGI (RXF 393 renal)?
**A.** 3.24 µM

**Q.** And the GI50 (COLO 205 colon)?
**A.** 4.22 µM

**Q.** And the TGI (COLO 205 colon)?
**A.** > 50 µM

**Q.** And the GI50 (KM12 colon)?
**A.** 1.34 µM

**Q.** What about the TGI (KM12 colon) of the same compound?
**A.** 12.6 µM

**Q.** What about the GI50 (LOX IMVI melanoma) of the same compound?
**A.** 1.44 µM

**Q.** What about the TGI (LOX IMVI melanoma) of the same compound?
**A.** 6.76 µM

**Q.** What about the GI50 (SNB-75 CNS) of the same compound?
**A.** 6.36 µM

**Q.** What about the TGI (SNB-75 CNS) of the same compound?
**A.** 21 µM

**Q.** And the GI50 (A549 NSCLC)?
**A.** 12.7 µM

**Q.** And the TGI (A549 NSCLC)?
**A.** 41.9 µM

**Q.** What about the GI50 (A498 renal) of the same compound?
**A.** 7.3 µM

**Q.** What about the TGI (A498 renal) of the same compound?
**A.** 15.7 µM

**Q.** And the GI50 (SK-MEL-28 melanoma)?
**A.** 10.2 µM

**Q.** What about the TGI (SK-MEL-28 melanoma) of the same compound?
**A.** 28 µM

**Q.** What about the GI50 (SNB-19 CNS) of the same compound?
**A.** 26.7 µM

**Q.** And the TGI (SNB-19 CNS)?
**A.** > 50 µM

**Q.** What about the GI50 (ACHN renal) of the same compound?
**A.** 3.61 µM

**Q.** What about the TGI (ACHN renal) of the same compound?
**A.** 14.4 µM

**Q.** What about the GI50 (M14 melanoma) of the same compound?
**A.** 9.02 µM

**Q.** What about the TGI (M14 melanoma) of the same compound?
**A.** 23.4 µM

**Q.** What about the GI50 (NCI-H460 lung) of the same compound?
**A.** 23.9 µM

**Q.** What about the TGI (NCI-H460 lung) of the same compound?
**A.** > 50 µM

**Q.** What about the GI50 (CAKI-1 renal) of the same compound?
**A.** > 50 µM

**Q.** What about the TGI (CAKI-1 renal) of the same compound?
**A.** > 50 µM

**Q.** And the GI50 (K-562 leukemia)?
**A.** 13.6 µM

**Q.** And the TGI (K-562 leukemia)?
**A.** 28.8 µM

**Q.** And the GI50 (HCT-15 colon)?
**A.** 10.2 µM

**Q.** And the TGI (HCT-15 colon)?
**A.** > 50 µM

**Q.** And the GI50 (RPMI-8226 leukemia)?
**A.** 15.3 µM

**Q.** What about the TGI (RPMI-8226 leukemia) of the same compound?
**A.** > 50 µM

**Q.** And the GI50 (SF-268 CNS)?
**A.** 10.1 µM

**Q.** What about the TGI (SF-268 CNS) of the same compound?
**A.** 25.9 µM

**Q.** What about the GI50 (SF-295 CNS) of the same compound?
**A.** 6.28 µM

**Q.** What about the TGI (SF-295 CNS) of the same compound?
**A.** > 50 µM

**Q.** What about the GI50 (U251 CNS) of the same compound?
**A.** 6.84 µM

**Q.** What about the TGI (U251 CNS) of the same compound?
**A.** 18.8 µM

**Q.** And the GI50 (UO-31 renal)?
**A.** 3.67 µM

**Q.** And the TGI (UO-31 renal)?
**A.** 14.6 µM

**Q.** What about the GI50 (MDA-MB-435) of the same compound?
**A.** 11.1 µM

**Q.** What about the TGI (MDA-MB-435) of the same compound?
**A.** 32.4 µM

**Q.** And the GI50 (OVCAR-8 ovarian)?
**A.** 17.1 µM

**Q.** And the TGI (OVCAR-8 ovarian)?
**A.** > 50 µM

**Q.** And the GI50 (HCT-116 colon)?
**A.** 2.3 µM

**Q.** What about the TGI (HCT-116 colon) of the same compound?
**A.** 11.3 µM

**Q.** And the GI50 (TK-10 renal)?
**A.** 9.01 µM

**Q.** What about the TGI (TK-10 renal) of the same compound?
**A.** 45.5 µM

**Q.** And the GI50 (MDA-MB-231 breast)?
**A.** 7.36 µM

**Q.** What about the TGI (MDA-MB-231 breast) of the same compound?
**A.** 17.4 µM

**Q.** And the GI50 (PC-3 prostate)?
**A.** 16.1 µM

**Q.** What about the TGI (PC-3 prostate) of the same compound?
**A.** > 50 µM
